Assay results from publication PMC6522510 (Nature Communications, 2019).
Like-named read-outs stand apart in the source and are kept apart here.

What was measured:
CMK = experiment: Secondary dose-response HTS, Cell Titer Glo; assay type: cell-based, human; details: CMK; for EC50: read-out: average effective concentration, CMK
CHRF288-11 [1] = experiment: Secondary dose-response HTS, Cell Titer Glo; assay type: cell-based, human; details: secondary high-throughput screen, CHRF288-11; for EC50: read-out: average effective concentration, CHRF288-11
ML2 = experiment: Secondary dose-response HTS, Cell Titer Glo; assay type: cell-based, human; details: secondary high-throughput screen, ML-2; for EC50: read-out: average effective concentration, ML-2
MV4-11 [2] = experiment: cells; set-up: species or system AML cell lines (8); Secondary HTS, 10-point dose-response in triplicate, Cell Titer Glo viability, four-parameter fit EC50; details: Homo sapiens, MV4-11, 72 h, read-out: MV4-11
MOLM-13 [3] = experiment: cells; set-up: species or system AML cell lines (8); Secondary HTS, 10-point dose-response in triplicate, Cell Titer Glo viability, four-parameter fit EC50; details: Homo sapiens, MOLM-13, 72 h, read-out: MOLM-13
U937 [4] = experiment: Secondary dose-response HTS, Cell Titer Glo; assay type: cell-based, human; details: secondary high-throughput screen, U937; for EC50: read-out: average effective concentration, U937
CMS = experiment: Secondary dose-response HTS, Cell Titer Glo; assay type: cell-based, human; details: for EC50: read-out: average effective concentration, CMS
M07e = experiment: Secondary dose-response HTS, Cell Titer Glo; assay type: cell-based, human; details: secondary high-throughput screen; for EC50: read-out: average effective concentration, M07e
U937 [5] = experiment: cells; set-up: species or system AML cell lines (8); Secondary HTS, 10-point dose-response in triplicate, Cell Titer Glo viability, four-parameter fit EC50; details: Homo sapiens, U-937, 72 h, read-out: U937
MV4-11 [6] = experiment: Secondary dose-response HTS, Cell Titer Glo; assay type: cell-based, human; details: secondary high-throughput screen, MV4-11; for EC50: read-out: average effective concentration, MV4-11
MOLM-13 [7] = experiment: Secondary dose-response HTS, Cell Titer Glo; assay type: cell-based, human; details: secondary high-throughput screen, MOLM-13; for EC50: read-out: average effective concentration, MOLM-13
CHRF288-11 [8] = experiment: cells; set-up: species or system AML cell lines (8); Secondary HTS, 10-point dose-response in triplicate, Cell Titer Glo viability, four-parameter fit EC50; details: 72 h, read-out: CHRF288-11
[9] = Homo sapiens, secondary high-throughput screen
[10] = Homo sapiens, HTS, secondary high-throughput screen, CMS
[11] = secondary high-throughput screen
[12] = secondary high-throughput screen, CMS

Row | Compound | EC50 (CHRF288-11 [1]; Homo sapiens, HTS) [nM] | EC50 (ML2; Homo sapiens) [nM] | EC50 (MV4-11 [2]) [nM] | EC50 (MOLM-13 [3]) [nM] | EC50 (U937 [4]; Homo sapiens, U-937) [nM] | EC50 (M07e; Homo sapiens, M-07e, M07e) [nM] | EC50 (CMK; [9]) [nM] | EC50 (CMS; [10]) [nM] | further results
1 | CC(C)[C@H](C(=O)Nc1ccc(C(=O)NO)cc1)c1ccccc1 [(S)-HDAC-42] | 260 | 330 | > 10000 | > 10000 | 220 | 160 |  |  | EC50 (CMK; Homo sapiens): 38 nM; EC50 (CMS; Homo sapiens, HTS): 220 nM
2 | CN(C)Cc1c(C(=O)NCCOc2ccc(C(=O)NO)cc2)oc2ccccc12 [ABEXINOSTAT] | 37 | 93 | > 10000 | > 10000 | 30 | 26 | 12 | 34 | 
3 | COC(=O)[C@]12CCC(C)(C)C[C@H]1[C@H]1C(=O)C=C3[C@@]4(C)C=C(C#N)C(=O)C(C)(C)[C@@H]4CC[C@@]3(C)[C@]1(C)CC2 [BARDOXOLONE METHYL] | 940 | 880 | > 10000 | > 10000 | 1000 | 4000 | 1100 | 1100 | 
4 | Cc1ccc2nc(NCCN)c3ncc(C)n3c2c1 [BMS-345541] | 3800 | 2200 | > 10000 | > 10000 | 2300 |  | 4700 | 5900 | EC50 (M07e; Homo sapiens, M-07e, […]): 6100 nM
5 | CC(C)C[C@H](NC(=O)[C@@H](NC(=O)c1cccc(-c2ccccc2)n1)[C@@H](C)O)B(O)O [DELANZOMIB] | 2.7 | 1 | > 10000 | 2.1 | 2.8 | 1 | 1.5 | 1 | 
6 | Nc1ccccc1NC(=O)c1ccc(CNC(=O)OCc2cccnc2)cc1 [ENTINOSTAT] | 4100 | 6200 | > 10000 | > 10000 | 5600 | 1000 | 110 | 760 | 
7 | O=c1[nH]c(=O)n([C@H]2C[C@H](O)[C@@H](CO)O2)cc1F [FLOXURIDINE] | 67 | 21 |  |  |  | 8200 | 980 | 7900 | EC50 (U937 [5]): > 10000 nM; EC50 (MV4-11 [6]; Homo sapiens): 130 nM; EC50 (MOLM-13 [7]; Homo sapiens): 23 nM
8 | CCN(CC)Cc1ccc2cc(COC(=O)Nc3ccc(C(=O)NO)cc3)ccc2c1 [GIVINOSTAT] | 61 | 70 | > 10000 | > 10000 | 55 | 31 | 3.7 | 86 | 
9 | Oc1ccc(C2=Cc3ccc(O)cc3OC2)cc1 [IDRONOXIL] | 180 | 130 | > 10000 | > 10000 | 1900 |  | 88 | 440 | EC50 (M07e; Homo sapiens, M-07e, […]): 1300 nM
10 | NS(=O)(=O)OC[C@@H]1C[C@@H](n2ccc3c(N[C@H]4CCc5ccccc54)ncnc32)C[C@@H]1O [MLN 4924] | 18 | 1 | > 10000 | > 10000 | 1 | 140 |  |  | EC50 (CMK; Homo sapiens): 1 nM; EC50 (CMS; Homo sapiens, HTS): 100 nM
11 | Nc1ccccc1NC(=O)c1ccc(CNc2nccc(-c3cccnc3)n2)cc1 [MOCETINOSTAT] | 170 | 410 | > 10000 | > 10000 | 1100 | 140 | 39 | 120 | 
12 | C=C1C(=O)O[C@H]2[C@H]1CC/C(C)=C/CC[C@@]1(C)O[C@@H]21 [PARTHENOLIDE] | 1600 | 920 | > 10000 | > 10000 | 2100 | 10000 |  |  | EC50 (CMK; Homo sapiens): 2100 nM; EC50 (CMS; Homo sapiens, HTS): 1200 nM
13 | CCCCc1nc2cc(/C=C/C(=O)NO)ccc2n1CCN(CC)CC [PRACINOSTAT] | 250 | 330 | > 10000 | > 10000 | 220 | 130 |  |  | EC50 (CMK; Homo sapiens): 70 nM; EC50 (CMS; Homo sapiens, HTS): 140 nM
14 | CCN(CC)CCCC(C)Nc1c2ccc(Cl)cc2nc2ccc(OC)cc12 (stereo not shown) [QUINACRINE] |  | > 10000 |  |  | 3900 | 7700 | 7700 | 5500 | EC50 (MV4-11 [6]; Homo sapiens): 3800 nM; EC50 (CHRF288-11 [8]): > 10000 nM; EC50 (MOLM-13 [7]; Homo sapiens): 2900 nM
15 | O=C1NC(=O)[C@@H](c2cn3c4c(cccc24)CCC3)[C@@H]1c1c[nH]c2ccccc12 [TIVANTINIB] | 3600 | 55 | > 10000 | > 10000 | 61 | 770 | 75 | 1500 | 
16 | LB 42708 |  |  |  |  |  |  |  |  | average effective concentration, CMK (CMK; [11]): Inactive; average effective concentration, CHRF288-11 (CHRF288-11 [1]): Inactive; EC50 (ML2): 2300 nM; average effective concentration, U937 (U937 [4]): Inactive; EC50 (CMS; [12]): 3400 nM; EC50 (MV4-11 [6]): 5000 nM; EC50 (MOLM-13 [7]): 2500 nM; average effective concentration, M07e (M07e; M07e): Inactive
17 | MST312 |  |  |  |  |  |  |  |  | average effective concentration, CMK (CMK; [11]): Inactive; EC50 (CHRF288-11 [1]): 2000 nM; EC50 (ML2): 3700 nM; EC50 (U937 [4]): 2800 nM; EC50 (CMS; [12]): 2900 nM; average effective concentration, MV4-11 (MV4-11 [6]): Inactive; EC50 (MOLM-13 [7]): 1500 nM; EC50 (M07e; M07e): 5200 nM
18 | PU-H71 |  |  |  |  |  |  |  |  | EC50 (CMK; [11]): 24 nM; EC50 (CHRF288-11 [1]): 170 nM; EC50 (ML2): 82 nM; average effective concentration, U937 (U937 [4]): Inactive; EC50 (CMS; [12]): 180 nM; EC50 (MV4-11 [6]): 23 nM; EC50 (MOLM-13 [7]): 19 nM; average effective concentration, M07e (M07e; M07e): Inactive
19 | SCR7 |  |  |  |  |  |  |  |  | average effective concentration, CMK (CMK; [11]): Inactive; average effective concentration, CHRF288-11 (CHRF288-11 [1]): Inactive; average effective concentration, ML-2 (ML2): Inactive; average effective concentration, U937 (U937 [4]): Inactive; average effective concentration, CMS (CMS; [12]): Inactive; average effective concentration, MV4-11 (MV4-11 [6]): Inactive; average effective concentration, MOLM-13 (MOLM-13 [7]): Inactive; average effective concentration, M07e (M07e; M07e): Inactive
20 | SN-38 |  |  |  |  |  |  |  |  | EC50 (CMK; [11]): 23 nM; EC50 (CHRF288-11 [1]): 9.49 nM; EC50 (ML2): 2.51 nM; EC50 (U937 [4]): 37 nM; average effective concentration, CMS (CMS; [12]): Inactive; EC50 (MV4-11 [6]): 240 nM; EC50 (MOLM-13 [7]): 5.6 nM; EC50 (M07e; M07e): 44 nM
